Common to all, as to assay: Postemergence foliar-applied herbicidal mixtures, weeds common to row crops
What all share (assay type): in vivo

Experiment [1] has as its system DIGSA Digitaria sanguinalis (L.) Scop. (large crabgrass). The text has this: (§1) Evaluation of Postemergence Foliar-Applied Herbicidal Mixtures for Control of Weeds Common to Row Crops such as Corn and Soybeans. Seeds or nutlets of the desired test plant species were planted in a soil matrix prepared by mixing a loam or sandy loam soil (e.g., 28.6 percent silt, 18.8 percent clay, and 52.6 percent sand, with a pH of about 5.8 and an organic matter content of about 1.8 percent) and calcareous grit in an 80 to 20 ratio. The soil matrix was contained in plastic pots with a surface area of 84.6 cm^2 and a volume of 560 cubic centimeters (cm^3). When required to ensure good germination and healthy plants, a fungicide treatment and/or other chemical or physical treatment was applied. The plants were grown for 7-31 d in a greenhouse with an approximate 15 h photoperiod which was maintained at about 23-29° C. during the day and 22-28° C. during the night. Nutrients (Peters Excel® 15-5-15 5-Ca 2-Mg) and water were added on a regular basis and supplemental lighting was provided with overhead metal halide 1000-Watt lamps as necessary. The plants were employed for testing when they reached the first, second, or third true leaf stage.
(§2) Treatment requirements were calculated based upon the rates being tested, the concentration of active ingredient or acid equivalent in the formulation, and a 12 mL application volume at a rate of 187 L/ha.
(§3) Treatments consisted of the potassium (K^+) salt of 4-amino-3-chloro-6-(4-chloro-2-fluoro-3-methoxyphenyl)-pyridine-2-carboxylic acid (Cmpd 4) formulated as a soluble liquid (SL), the propargyl ester of 4-amino-3-chloro-6-(4-chloro-2-fluoro-3-methoxyphenyl)-pyridine-2-carboxylic acid (Cmpd 2) as technical grade material, or the benzyl ester of 4-amino-3-chloro-6-(4-chloro-2-fluoro-3-methoxyphenyl)-pyridine-2-carboxylic acid (Cmpd 3) as technical grade material and quizalofop-p-ethyl (Assure® II) alone and in combination. Forms of compound of formula (I) and quizalofop-P-ethyl were applied on an acid equivalent basis.
(§4) For treatments comprised of formulated compounds, measured amounts of compounds were placed individually in 25 mL glass vials and diluted in a volume of 1.5% (v/v) Agri-Dex® crop oil concentrated to obtain 6× stock solutions. […] Application solutions were prepared by adding an appropriate amount of each stock solution (typically 2 mL) and diluted to the appropriate final concentrations with the addition of an appropriate amount of an aqueous mixture of 1.5% (v/v) crop oil concentrate and water so that the final spray solutions contained 1.25+/−0.05% (v/v) crop oil concentrate.
(§5) For treatments comprised of formulated and technical compounds, weighed amounts of the technical materials were placed individually in 25 mL glass vials and dissolved in a volume of 97:3 v/v acetone/DMSO to obtain 6× stock solutions, and measured amounts of the formulated compounds were placed individually in 25 mL glass vials and diluted in a volume of 1.5% (v/v) crop oil concentrate or water to obtain 6× stock solutions. […] Application solutions were prepared by adding an appropriate amount of each stock solution (e.g., 2 mL) and diluted to the appropriate final concentrations with the addition of an appropriate amount of an aqueous mixture of 1.5% (v/v) crop oil concentrate and water so that the final spray solutions contained 1.25% (v/v) crop oil concentrate. When required, additional water and/or 97:3 v/v acetone/DMSO can be added to individual application solutions so that the final acetone and DMSO concentrations of the application solutions being compared are 16.2% and 0.5%, respectively.
(§6) All stock solutions and applications solutions were visually inspected for compound compatibility prior to application. Compound requirements are based upon a 12 mL application volume at a rate of 187 liters per hectare (L/ha). […]

Experiment [2] deals with LOLMU Lolium multiflorum Lam. (Italian ryegrass).
From the text: as §1, §2, §3, §4, §5, §6

Experiment [3] concerns AVEFA Avena fatua L. (wild oat).
From the text: as §1, §2, §3, §4, §5, §6

Experiment [4] relates to SORHA Sorghum halepense (L.) Pers. (Johnsongrass).
From the text: as §1, §2, §3, §4, §5, §6

The test system of experiment [5] is OEOBI Oenothera biennis (evening primrose).
From the text: as §1, §2, §3, §4, §5, §6

The record followed here is US20140213446A1, “HERBICIDAL COMPOSITIONS AND METHODS USING COMBINATIONS OF 4-AMINO-3-CHLORO-6-(4-CHLORO-2-FLUORO-3-METHOXYPHENYL)PYRIDINE-2-CARBOXYLIC ACID OR A DERIVATIVE THEREOF AND AN ARYLOXYPHENOXY PROPIONATE ACCASE INHIBITOR HERBICIDE” (DOW AGROSCIENCES LLC, priority 2013, published 2014).

As for `COc1c(Cl)ccc(-c2cc(N)c(Cl)c(C(=O)OCc3ccccc3)n2)c1F` [Cmpd 3, benzyl ester of 4-amino-3-chloro-6-(4-chloro-2-fluoro-3-methoxyphenyl)-pyridine-2-carboxylic acid], the “Percent (%) injury rated visually 14 DAA Obs” value is 40% in experiment [1] (Cmpd 3 3.75 g ae/ha); 40% in experiment [1] (Cmpd 3 7.5 g ae/ha); 35% in experiment [1] (Cmpd 3 15 g ae/ha); 15% in experiment [2] (Cmpd 3 3.75 g ae/ha); 50% in experiment [2] (Cmpd 3 7.5 g ae/ha); 40% in experiment [2] (Cmpd 3 15 g ae/ha). For the same compound, the “Percent (%) injury rated visually 14 DAA Obs” value in experiment [3] (Cmpd 3 3.75 g ae/ha) is reported as 10%; in experiment [3] (Cmpd 3 7.5 g ae/ha) it was 0%; in experiment [3] (Cmpd 3 15 g ae/ha) it was 0%.

Consider “potassium (K^+) salt of 4-amino-3-chloro-6-(4-chloro-2-fluoro-3-methoxyphenyl)-pyridine-2-carboxylic acid [Cmpd 4]”, for which the “Percent (%) injury rated visually 14 DAA Obs” value in experiment [4] (Cmpd 4 3.75 g ae/ha) was found to be 0%; in experiment [4] (Cmpd 4 7.5 g ae/ha), 0%; in experiment [4] (Cmpd 4 15 g ae/ha) it was 10%; in experiment [1] (Cmpd 4 3.75 g ae/ha), 20%; in experiment [1] (Cmpd 4 7.5 g ae/ha), 15%; in experiment [1] (Cmpd 4 15 g ae/ha), 40%. In addition, the “Percent (%) injury rated visually 14 DAA Obs” value in experiment [2] (Cmpd 4 3.75 g ae/ha) is 0%; in experiment [2] (Cmpd 4 7.5 g ae/ha), 15%; in experiment [2] (Cmpd 4 15 g ae/ha), 40%; in experiment [5] (Cmpd 4 3.75 g ae/ha), 50%; in experiment [5] (Cmpd 4 7.5 g ae/ha), 80%.
